Data taken from patent publication US7868135B2, “Compositions of lipopeptide antibiotic derivatives and methods of use thereof” (priority 2003, dated 2011).

Assays:
[1] = tested on: Streptococcus pyogenes SPY0001 (PenS); assay: Broad spectrum MIC, Table 17/18 column M; assay type: cell-based; details: condition M of Table 17, in µg/mL
Summary of the method: (§1)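 Colonies picked from 18-24 hour blood agar plates were inoculated into cation-adjusted Mueller-Hinton broth with 0.625 mM calcium or alternative media, exposed to doubling serial dilutions of compound, incubated at about 37° C for 24 hours, and scored for minimum inhibitory concentration.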

[2] = tested on: Streptococcus pneumoniae SPN0032 (PSSP); assay: Broad spectrum MIC, Table 17/18 column L; assay type: cell-based; details: condition L of Table 17, in µg/mL
Summary of the method: as §1

[3] = tested on: Staphylococcus aureus SAU0031 (VISA); assay: Broad spectrum MIC, Table 17/18 column G; assay type: cell-based; details: condition G of Table 17, in µg/mL
Summary of the method: as §1

[4] = tested on: S. aureus Smith (SAU0017, ATCC 19636); assay: Intraperitoneal murine model of protection against infection (ED50, Table 21); assay type: in vivo, Staphylococcus aureus; details: Swiss CD1 mice infected i.p., compound i.v.
[5] = tested on: Streptococcus pneumoniae SPN0002 (PISP); assay: Broad spectrum MIC, Table 17/18 column J; assay type: cell-based; details: condition J of Table 17, in µg/mL
Summary of the method: as §1

[6] = tested on: Enterococcus faecium EFM0101 (VRE, MDR); assay: Broad spectrum MIC, Table 17/18 column A; assay type: cell-based; details: condition A of Table 17, in µg/mL
Summary of the method: as §1

[7] = tested on: Streptococcus pneumoniae SPN0023 (PRSP); assay: Broad spectrum MIC, Table 17/18 column K; assay type: cell-based; details: condition K of Table 17, in µg/mL
Summary of the method: as §1

[8] = In vivo half-life after single i.v. administration, mice; details: female, Swiss CD1, mouse, plasma, iv, 10 mg/kg
Experimental: Yet other exemplary in vivo models can be used to characterize the pharmacokinetics and pharmacodynamic parameters of antimicrobial compounds of this disclosure. Some parameters that can be measured include an in vivo half-life of a compound, elimination rate and clearance, volume of distribution, and bioavailability. For example, briefly, compounds can be administered as a single i.v. or oral (p.o.) dose in mice or rats. At various time points (ranging from 1 minute to 72 hours), blood from treated animals is collected and the concentration of lipopeptide derivative in the ex vivo plasma can be quantified by, for example, liquid chromatography with mass spectrometric detection (LC/MS). After quantification, pharmacokinetics parameters can be calculated using methods known in the art, such as a one compartment model with mono-exponential decay and linear regression analysis (see, e.g., Fantin et al., Antimicrob. Agents Chemotherap. 35: 1413. 1991).
A pharmacokinetic parameter that can be measured, and which aids in determining efficacy, after a single i.v. administration of an antimicrobial lipopeptide derivative of the instant disclosure is the systemic half-life of the compound. Briefly, test compounds were dissolved in a 5% mannitol solution (pH was then adjusted) to a concentration of 1 mg/mL (w/v). A single intravenous injection in the lateral caudal vein of Swiss CD1 mice (5 to 6 weeks old, female) or Sprague Dawley rats (male) was used to administer the lipopeptide derivative at a final dose of 10 mg/kg. At various time points (ranging from about 4 minutes to about 24 hours for mice, and 48 or 72 hours for rats) mice were sacrificed and blood was harvested. The concentration of lipopeptide derivative in ex vivo plasma was quantified using liquid chromatography (LC) with mass spectrometric detection (MS).

[9] = tested on: Staphylococcus aureus SAU0017 (MSSA); assay: Broad spectrum MIC, Table 17/18 columns E, F (+ 0.625 mM calcium; + calcium and 30% bovine serum); assay type: cell-based; details: in µg/mL; for MIC, media condition E: condition E: + 0.625 mM calcium; for MIC, media condition F: condition F: + calcium and 30% bovine serum
Summary of the method: as §1

[10] = tested on: Staphylococcus epidermidis SEP0375 (MRSE); assay: Broad spectrum MIC, Table 17/18 column I; assay type: cell-based; details: condition I of Table 17, in µg/mL
Summary of the method: as §1

[11] = tested on: Staphylococcus aureus SAU0065 (MRSA); assay: Broad spectrum MIC, Table 17/18 column H; assay type: cell-based; details: condition H of Table 17, in µg/mL
Summary of the method: as §1

[12] = tested on: Enterococcus faecalis EFS0004 (VSE); assay: Broad spectrum MIC, Table 17/18 B, C, D (CAMHB; + 0.625 mM calcium; + calcium and 30% bovine serum); assay type: cell-based; details: in µg/mL; for MIC, media condition B: condition B: CAMHB; for MIC, media condition C: condition C: + 0.625 mM calcium; for MIC, media condition D: condition D: + calcium and 30% bovine serum
Summary of the method: as §1

[13] = tested on: E. faecalis EFS0040 (clinical isolate); assay: Intraperitoneal murine model of protection against infection (ED50, Table 21); assay type: in vivo, Enterococcus faecalis; details: Swiss CD1 mice infected i.p., compound i.v.

Compound	MIC, media condition M [1]	MIC, media condition L [2]	MIC, media condition G [3]	ED50 in Mice, S. aureus (SAU0017) [4] [mg/kg]	MIC, media condition J [5]	MIC, media condition A [6]	MIC, media condition K [7]	half-life [8] [h]	MIC, media condition E [9]	MIC, media condition F [9]	MIC, media condition I [10]	MIC, media condition H [11]	MIC, media condition B [12]	MIC, media condition C [12]	MIC, media condition D [12]	ED50 in Mice, E. faecalis (EFS0040) [13] [mg/kg]
CCCCCCCCCCCCCCC(=O)NC(CC(=O)O)C(=O)NC1C(=O)N2CCCCC2C(=O)NC(C(C)C(=O)O)C(=O)NC(CC(=O)O)C(=O)NCC(=O)NC(CC(=O)O)C(=O)NCC(=O)NC(C(C)NC(=O)CNC(=O)[C@@H](N)CCCCN)C(=O)NC(C(C)C)C(=O)N2CCCC2C(=O)NC1C (some centres unmarked) [Compound 4, C15-Amphomycin-9-Gly-Lys]	0.25	0.25-0.5	8	6.2	0.25	1	0.25	0.752	0.5-1	4	1-2	1-4	1-4	1-2	>64	
CCCCCCCCCCCCCCC(=O)NC(CC(=O)O)C(=O)NC1C(=O)N2CCCCC2C(=O)NC(C(C)C(=O)O)C(=O)NC(CC(=O)O)C(=O)NCC(=O)NC(CC(=O)O)C(=O)NCC(=O)NC(C(C)NC(=O)CCN)C(=O)NC(C(C)C)C(=O)N2CCCC2C(=O)NC1C (stereo not drawn) [Compound 147, C15-Amphomycin-9-(β-Ala)]	0.125	0.125	2	6.5	0.125	0.5-1	0.125	8.02	0.25-0.5	2	0.5-1	1	2	0.5-1	32	0.8
CCCCCCCCCCCCCCC(=O)NC(CC(=O)O)C(=O)NC1C(=O)N2CCCCC2C(=O)NC(C(C)C(=O)O)C(=O)NC(CC(=O)O)C(=O)NCC(=O)NC(CC(=O)O)C(=O)NCC(=O)NC(C(C)NC(=O)CN(C)C(=O)[C@@H](N)CCCCN)C(=O)NC(C(C)C)C(=O)N2CCCC2C(=O)NC1C (some centres unmarked) [Compound 199, C15-Amphomycin-9-Sar-Lys]	0.25	0.25-0.5	4-8	8	0.25	0.5-1	0.25	6.18	0.25-1	4-8	0.5-1	1-2	1-2	1-2	64	3
